US6518243B1, “Desleucyl glycopeptide antibiotics and methods of making same” (Trustees of Princeton University, priority 1999, dated 2003)

Experiments:
[1] = tested on: S. epidermidis (ATCC 12228); test: Zone of inhibition screen, 96 well agar array format; format: cell-based; design: scale not given here
Procedure, shortened: (§1)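 Agar-array screen, 96-well; single compounds vs. strain panel (panel also incl. E. faecium ATCC 49624); antibacterial activity scored.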

[2] = tested on: E. faecalis (CL 4877); test: as above; format: cell-based; design: scale not given here
Procedure, shortened: as §1

[3] = zone of inhibition relative to 1 mg/ml stock solution of p-chlorobiphenylvancomycin
[4] = zone of inhibition relative to 1 mg/ml p-chlorobiphenylvancomycin

| Structure (SMILES) | zone score, S. epidermidis ATCC 12228 [1, 3] | zone score, E. faecalis CL 4877 [2, 3] | zone score, S. epidermidis ATCC 12228 [1, 4] | zone score, E. faecalis CL 4877 [2, 4] |
| --- | --- | --- | --- | --- |
| CC1OC(OC2C(Oc3c4cc5cc3Oc3ccc(cc3Cl)C(O)C3NC(=O)C(NC(=O)C5NC(=O)C(CC(N)=O)NC(=O)C(NC(=O)C[N+](C)(C)C)C(O)c5ccc(c(Cl)c5)O4)c4ccc(O)c(c4)-c4c(O)cc(O)cc4C(C(=O)O)NC3=O)OC(CO)C(O)C2O)CC(C)(NCc2ccc(-c3ccc(Cl)cc3)cc2)C1O (stereo not drawn) [Compound 129] | 2 | 2 |  |  |
| CC1OC(OC2C(Oc3c4cc5cc3Oc3ccc(cc3Cl)C(O)C3NC(=O)C(NC(=O)C5NC(=O)C(CC(N)=O)NC(=O)C(NC(=O)CC(NC(=O)OC(C)(C)C)C(N)=O)C(O)c5ccc(c(Cl)c5)O4)c4ccc(O)c(c4)-c4c(O)cc(O)cc4C(C(=O)O)NC3=O)OC(CO)C(O)C2O)CC(C)(NCc2ccc(-c3ccc(Cl)cc3)cc2)C1O (stereo not drawn) [Compound 134] | 2 | 2 |  |  |
| CC1OC(OC2C(Oc3c4cc5cc3Oc3ccc(cc3Cl)[C@@H](O)[C@@H](NC(=O)/C=C\C(N)=O)C(=O)N[C@@H](CC(N)=O)C(=O)N[C@H]5C(=O)NC3C(=O)N[C@H](C(=O)N[C@@H](C(=O)O)c5cc(O)cc(O)c5-c5cc3ccc5O)[C@H](O)c3ccc(c(Cl)c3)O4)OC(CO)C(O)C2O)CC(C)(NCc2ccc(-c3ccc(Cl)cc3)cc2)C1O (stereo partly drawn) [Compound 170] | 2 | 2 |  |  |
| CSCCC(NC(C)=O)C(=O)NC1C(=O)NC(CC(N)=O)C(=O)NC2C(=O)NC3C(=O)NC(C(=O)NC(C(=O)O)c4cc(O)cc(O)c4-c4cc3ccc4O)C(O)c3ccc(c(Cl)c3)Oc3cc2cc(c3OC2OC(CO)C(O)C(O)C2OC2CC(C)(NCc3ccc(-c4ccc(Cl)cc4)cc3)C(O)C(C)O2)Oc2ccc(cc2Cl)C1O (stereo not drawn) [Compound 182] | 2 | 2 |  |  |
| CC1OC(OC2C(Oc3c4cc5cc3Oc3ccc(cc3Cl)C(O)C3NC(=O)C(NC(=O)C5NC(=O)C(CC(N)=O)NC(=O)C(NC(=O)CNC=O)C(O)c5ccc(c(Cl)c5)O4)c4ccc(O)c(c4)-c4c(O)cc(O)cc4C(C(=O)O)NC3=O)OC(CO)C(O)C2O)CC(C)(NCc2ccc(-c3ccc(Cl)cc3)cc2)C1O (stereo not drawn) [Compound 193] | 2 | 2 |  |  |
| CC1OC(OC2C(Oc3c4cc5cc3Oc3ccc(cc3Cl)C(O)C3NC(=O)C(NC(=O)C5NC(=O)C(CC(N)=O)NC(=O)C(NC(=O)Cn5cnnn5)C(O)c5ccc(c(Cl)c5)O4)c4ccc(O)c(c4)-c4c(O)cc(O)cc4C(C(=O)O)NC3=O)OC(CO)C(O)C2O)CC(C)(NCc2ccc(-c3ccc(Cl)cc3)cc2)C1O (stereo not drawn) [Compound 228] |  |  | 2 | 2 |
| CC1OC(OC2C(Oc3c4cc5cc3Oc3ccc(cc3Cl)C(O)C3NC(=O)C(NC(=O)C5NC(=O)C(CC(N)=O)NC(=O)C(NC(=O)c5cccnc5N)C(O)c5ccc(c(Cl)c5)O4)c4ccc(O)c(c4)-c4c(O)cc(O)cc4C(C(=O)O)NC3=O)OC(CO)C(O)C2O)CC(C)(NCc2ccc(-c3ccc(Cl)cc3)cc2)C1O (stereo not drawn) [Compound 237] |  |  | 2 | 2 |
| CC1OC(OC2C(Oc3c4cc5cc3Oc3ccc(cc3Cl)C(O)C3NC(=O)C(NC(=O)C5NC(=O)C(CC(N)=O)NC(=O)C(NC(=O)c5cccc(C(F)(F)F)c5)C(O)c5ccc(c(Cl)c5)O4)c4ccc(O)c(c4)-c4c(O)cc(O)cc4C(C(=O)O)NC3=O)OC(CO)C(O)C2O)CC(C)(NCc2ccc(-c3ccc(Cl)cc3)cc2)C1O (stereo not drawn) [Compound 247] |  |  | 2 | 2 |
| CC1OC(OC2C(Oc3c4cc5cc3Oc3ccc(cc3Cl)C(O)C3NC(=O)C(NC(=O)C5NC(=O)C(CC(N)=O)NC(=O)C(NC(=O)c5cccc(O)n5)C(O)c5ccc(c(Cl)c5)O4)c4ccc(O)c(c4)-c4c(O)cc(O)cc4C(C(=O)O)NC3=O)OC(CO)C(O)C2O)CC(C)(NCc2ccc(-c3ccc(Cl)cc3)cc2)C1O (stereo not drawn) [Compound 277] |  |  | 2 | 2 |
| CC(=O)NC1C(=O)NC(CC(N)=O)C(=O)NC2C(=O)NC3C(=O)NC(C(=O)NC(C(=O)O)c4cc(O)cc(O)c4-c4cc3ccc4O)C(O)c3ccc(c(Cl)c3)Oc3cc2cc(c3OC2OC(CO)C(O)C(O)C2OC2CC(C)(NCc3ccc(-c4ccc(Cl)cc4)cc3)C(O)C(C)O2)Oc2ccc(cc2Cl)C1O (stereo not drawn) [Compound 279] |  |  | 2 | 2 |
| CC1OC(OC2C(Oc3c4cc5cc3Oc3ccc(cc3Cl)C(O)C3NC(=O)C(NC(=O)C5NC(=O)C(CC(N)=O)NC(=O)C(NC(=O)c5ccccc5N)C(O)c5ccc(c(Cl)c5)O4)c4ccc(O)c(c4)-c4c(O)cc(O)cc4C(C(=O)O)NC3=O)OC(CO)C(O)C2O)CC(C)(NCc2ccc(-c3ccc(Cl)cc3)cc2)C1O (stereo not drawn) [Compound 280] |  |  | 2 | 2 |
| CC1NC(=O)NC1CCCCCC(=O)NC1C(=O)NC(CC(N)=O)C(=O)NC2C(=O)NC3C(=O)NC(C(=O)NC(C(=O)O)c4cc(O)cc(O)c4-c4cc3ccc4O)C(O)c3ccc(c(Cl)c3)Oc3cc2cc(c3OC2OC(CO)C(O)C(O)C2OC2CC(C)(NCc3ccc(-c4ccc(Cl)cc4)cc3)C(O)C(C)O2)Oc2ccc(cc2Cl)C1O (stereo not drawn) [Compound 284] |  |  | 2 | 2 |
| CCOC(=O)C=CC(=O)NC1C(=O)NC(CC(N)=O)C(=O)NC2C(=O)NC3C(=O)NC(C(=O)NC(C(=O)O)c4cc(O)cc(O)c4-c4cc3ccc4O)C(O)c3ccc(c(Cl)c3)Oc3cc2cc(c3OC2OC(CO)C(O)C(O)C2OC2CC(C)(NCc3ccc(-c4ccc(Cl)cc4)cc3)C(O)C(C)O2)Oc2ccc(cc2Cl)C1O (stereo not drawn) [Compound 288] |  |  | 2 | 2 |
| CC1OC(OC2C(Oc3c4cc5cc3Oc3ccc(cc3Cl)C(O)C3NC(=O)C(NC(=O)C5NC(=O)C(CC(N)=O)NC(=O)C(NC(=O)c5ccncc5)C(O)c5ccc(c(Cl)c5)O4)c4ccc(O)c(c4)-c4c(O)cc(O)cc4C(C(=O)O)NC3=O)OC(CO)C(O)C2O)CC(C)(NCc2ccc(-c3ccc(Cl)cc3)cc2)C1O (stereo not drawn) [Compound 292] |  |  | 2 | 2 |
| CC(O)C(=O)NC1C(=O)NC(CC(N)=O)C(=O)NC2C(=O)NC3C(=O)NC(C(=O)NC(C(=O)O)c4cc(O)cc(O)c4-c4cc3ccc4O)C(O)c3ccc(c(Cl)c3)Oc3cc2cc(c3OC2OC(CO)C(O)C(O)C2OC2CC(C)(NCc3ccc(-c4ccc(Cl)cc4)cc3)C(O)C(C)O2)Oc2ccc(cc2Cl)C1O (stereo not drawn) [Compound 294] |  |  | 2 | 2 |
| CC(=O)CCC(=O)NC1C(=O)NC(CC(N)=O)C(=O)NC2C(=O)NC3C(=O)NC(C(=O)NC(C(=O)O)c4cc(O)cc(O)c4-c4cc3ccc4O)C(O)c3ccc(c(Cl)c3)Oc3cc2cc(c3OC2OC(CO)C(O)C(O)C2OC2CC(C)(NCc3ccc(-c4ccc(Cl)cc4)cc3)C(O)C(C)O2)Oc2ccc(cc2Cl)C1O (stereo not drawn) [Compound 295] |  |  | 2 | 2 |
| CCOC(=O)C=CC(=O)NC1C(=O)NC(CC(N)=O)C(=O)NC2C(=O)NC3C(=O)NC(C(=O)NC(C(=O)O)c4cc(O)cc(O)c4-c4cc3ccc4O)C(O)c3ccc(c(Cl)c3)Oc3cc2cc(c3OC2OC(CO)C(O)C(O)C2OC2CC(C)(NCc3ccc(-c4ccc(Cl)cc4)cc3)C(O)C(C)O2)Oc2ccc(cc2Cl)C1O (stereo not drawn) [Compound 296] |  |  | 2 | 2 |
| CC1OC(OC2C(Oc3c4cc5cc3Oc3ccc(cc3Cl)C(O)C3NC(=O)C(NC(=O)C5NC(=O)C(CC(N)=O)NC(=O)C(NC(=O)CSCCS(=O)(=O)c5ccc(Cl)cc5)C(O)c5ccc(c(Cl)c5)O4)c4ccc(O)c(c4)-c4c(O)cc(O)cc4C(C(=O)O)NC3=O)OC(CO)C(O)C2O)CC(C)(NCc2ccc(-c3ccc(Cl)cc3)cc2)C1O (stereo not drawn) [Compound 300] |  |  | 2 | 2 |
| CC1OC(OC2C(Oc3c4cc5cc3Oc3ccc(cc3Cl)C(O)C3NC(=O)C(NC(=O)C5NC(=O)C(CC(N)=O)NC(=O)C(NC(=O)CNC(=O)C=Cc5ccco5)C(O)c5ccc(c(Cl)c5)O4)c4ccc(O)c(c4)-c4c(O)cc(O)cc4C(C(=O)O)NC3=O)OC(CO)C(O)C2O)CC(C)(NCc2ccc(-c3ccc(Cl)cc3)cc2)C1O (stereo not drawn) [Compound 306] |  |  | 2 | 2 |
| CC1OC(OC2C(Oc3c4cc5cc3Oc3ccc(cc3Cl)C(O)C3NC(=O)C(NC(=O)C5NC(=O)C(CC(N)=O)NC(=O)C(NC(=O)c5ccc[n+]([O-])c5)C(O)c5ccc(c(Cl)c5)O4)c4ccc(O)c(c4)-c4c(O)cc(O)cc4C(C(=O)O)NC3=O)OC(CO)C(O)C2O)CC(C)(NCc2ccc(-c3ccc(Cl)cc3)cc2)C1O (stereo not drawn) [Compound 308] |  |  | 2 | 2 |
| CNC(=O)C=CC(=O)NC1C(=O)NC(CC(N)=O)C(=O)NC2C(=O)NC3C(=O)NC(C(=O)NC(C(=O)O)c4cc(O)cc(O)c4-c4cc3ccc4O)C(O)c3ccc(c(Cl)c3)Oc3cc2cc(c3OC2OC(CO)C(O)C(O)C2OC2CC(C)(NCc3ccc(-c4ccc(Cl)cc4)cc3)C(O)C(C)O2)Oc2ccc(cc2Cl)C1O (stereo not drawn) [Compound 309] |  |  | 2 | 2 |
| CC1OC(OC2C(Oc3c4cc5cc3Oc3ccc(cc3Cl)C(O)C3NC(=O)C(NC(=O)C5NC(=O)C(CC(N)=O)NC(=O)C(NC(=O)Cc5c(F)c(F)c(F)c(F)c5F)C(O)c5ccc(c(Cl)c5)O4)c4ccc(O)c(c4)-c4c(O)cc(O)cc4C(C(=O)O)NC3=O)OC(CO)C(O)C2O)CC(C)(NCc2ccc(-c3ccc(Cl)cc3)cc2)C1O (stereo not drawn) [Compound 310] |  |  | 2 | 2 |
| CC1OC(OC2C(Oc3c4cc5cc3Oc3ccc(cc3Cl)C(O)C3NC(=O)C(NC(=O)C5NC(=O)C(CC(N)=O)NC(=O)C(NC(=O)c5cccs5)C(O)c5ccc(c(Cl)c5)O4)c4ccc(O)c(c4)-c4c(O)cc(O)cc4C(C(=O)O)NC3=O)OC(CO)C(O)C2O)CC(C)(NCc2ccc(-c3ccc(Cl)cc3)cc2)C1O (stereo not drawn) [Compound 319] |  |  | 2 | 2 |
| CC1OC(OC2C(Oc3c4cc5cc3Oc3ccc(cc3Cl)C(O)C3NC(=O)C(NC(=O)C5NC(=O)C(CC(N)=O)NC(=O)C(NC(=O)Cc5ccsc5)C(O)c5ccc(c(Cl)c5)O4)c4ccc(O)c(c4)-c4c(O)cc(O)cc4C(C(=O)O)NC3=O)OC(CO)C(O)C2O)CC(C)(NCc2ccc(-c3ccc(Cl)cc3)cc2)C1O (stereo not drawn) [Compound 320] |  |  | 2 | 2 |
